Where two headings read alike, the source gives them in different places.
Assays:
SF3b complexes = biological target: T1, SF3b complexes (Homo sapiens, UniProt O75533+Q7RTV0); experiment: Scintillation proximity assay (SPA) with [3H]-labelled pladienolide probe; type: binding; settings: SF3B1 (WT); geometric mean; read-out: SPA-ATS GMean IC50 (nM) SF3B1 (WT)
T1 construct: endogenous in cells; host or cells: Nuclear extracts; A HeLa S3 extract preparation is described for the in vitro splicing assay
Method in brief: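 SF3b complexes captured from nuclear extracts on anti-SF3B1 antibody SPA beads; test compounds pre-incubated 30 min before 2.5 nM [3H]-pladienolide probe added, then 30 min incubation. Bound probe read by scintillation; values from non-linear regression of concentration–response curves.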

[1] = test system: Ad2 variant pre-mRNAs spliced in HeLa S3 nuclear extracts; experiment: In vitro splicing assay (IVS), RT-qPCR of spliced product; type: biochemical; settings: for IC50: geometric mean; for Ratio Ad2.1/2.2: ratio of IVS IC50 Ad2.1 to Ad2.2
Method in brief: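 Read-out is one-step TaqMan RT-qPCR of spliced Ad2 mRNA with Ftz as reference, normalized to DMSO and fit by non-linear regression. Reactions held HeLa S3 nuclear extract, 2 ng Ad2-derived pre-mRNA and test compound, with 15 min preincubation. Splicing was started with ATP-containing activation buffer and run 90 min at 30 °C.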

[2] = test system: NCI-H1568 cells (high MCL1); experiment: Cell proliferation and viability, CellTiter-Glo, 72 hours; type: cell-based; settings: for GI50: geometric mean
Method in brief: (§1)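 RPMI-1640/10% FBS (Panc: + insulin, FBS 15%); 11-pt half-log dose, ~10 μM-100 pM, 0.1% DMSO; 37° C, 5% CO2; ATP luminescence read; % inhibition vs T0 and vehicle, −100% cidal to 100% uninhibited growth.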

[3] = test system: Panc 05.04 cells (SF3b K700E mutant); experiment: as above; type: cell-based; settings: for GI50: geometric mean
Method in brief: as §1

[4] = Ad2.1 pre-mRNA substrate, read-out: qPCR-IVS-ATS GMean IC50 (nM) Ad2.1
[5] = Ad2.2 pre-mRNA substrate, read-out: qPCR-IVS-ATS GMean IC50 (nM) Ad2.2
[6] = 72 h, NCIH1568.1, -100% = cidal, 0% = static, 100% = uninhibited growth
[7] = NCI-H1568, read-out: CTGlo-ATS GMean GI50 (nM) 72 h NCIH1568.1, 72 h, NCIH1568.1
[8] = 72 h, PANC0504.1, -100% = cidal, 0% = static, 100% = uninhibited growth
[9] = Panc 05.04, read-out: CTGlo-ATS GMean GI50 (nM) 72 h PANC0504.1, 72 h, PANC0504.1
[10] = NCIH1568.1 cells, 72 h, −100% cidal, 0% static, 100% maximal growth
[11] = PANC0504.1 cells, 72 h, −100% cidal, 0% static, 100% maximal growth
[12] = NCI-H1568, 72 h, read-out: CTGlo-ATS GMean GI50 (nM) 72 h NCIH1568.1, NCIH1568.1 cells, 72 h
[13] = Panc 05.04, 72 h, read-out: CTGlo-ATS GMean GI50 (nM) 72 h PANC0504.1, PANC0504.1 cells, 72 h
[14] = NCI-H1568, read-out: CTGlo-ATS GMean GI50 (nM) 72 h NCIH1568.1, NCIH1568.1 cells, 72 h
[15] = Panc 05.04, read-out: CTGlo-ATS GMean GI50 (nM) 72 h PANC0504.1, PANC0504.1 cells, 72 h
[16] = NCI-H1568, 72 h, read-out: CTGlo-ATS GMean GI50 (nM) 72 h NCIH1568.1, 72 h, NCIH1568.1

| Compound | IC50 (SF3b complexes) [nM] | IC50 [1, 4] [nM] | IC50 [1, 5] [nM] | CTGlo-ATS Mean MinResponse % 72 h NCIH1568.1 [2, 6] [%] | GI50 [2, 7] [nM] | CTGlo-ATS Mean MinResponse % 72 h PANC0504.1 [3, 8] [%] | GI50 [3, 9] [nM] | CTGlo-ATS Mean MinResponse % 72 h NCIH1568.1 [2, 10] [%] | CTGlo-ATS Mean MinResponse % 72 h PANC0504.1 [3, 11] [%] | further results |
| --- | --- | --- | --- | --- | --- | --- | --- | --- | --- | --- |
| C/C(=C\c1cccc(COC(=O)N2CC[C@@H](F)C2)c1)[C@H]1OC(=O)C[C@H](O)CC[C@H](C)[C@@H](OC(=O)N2CCN(C)CC2)/C=C/[C@@H]1C (single isomer, unassigned) [Compound 256] | 15.6 | > 25000 | 112 | −5.090 | 60.9 | −88.839 | 43.4 | – | – | Ratio Ad2.1/2.2 [1]: 222.862 |
| C/C(=C\c1cc(F)cc(N2CCOCC2)c1)[C@H]1OC(=O)C[C@H](O)CC[C@@](C)(O)C(OC(=O)N2CCN(C)CC2)/C=C/[C@@H]1C (stereo in doubt) [Compound 86, [(2S,3S,4E,6R,7R,10R)-2-[(E)-1-(3-fluoro-5-morpholin-4-ylphenyl)prop-1-en-2-yl]-7,10-dihydroxy-3,7-dimethyl-12-oxo-1-oxacyclododec-4-en-6-yl] 4-methylpiperazine-1-carboxylate] | 12.2 | 929 | 89.6 | – | – | – | – | −39.164 | −93.814 | GI50 ([2]; read-out: CTGlo-ATS GMean GI50 (nM) 72 h NCIH1568.1, NCIH1568.1 cells, 72 h): 32.5 nM; GI50 ([3]; read-out: CTGlo-ATS GMean GI50 (nM) 72 h PANC0504.1, PANC0504.1 cells, 72 h): 34.8 nM |
| COCCN1CCN(c2cc(F)cc(/C=C(\C)[C@H]3OC(=O)C[C@H](O)CC[C@H](C)[C@@H](OC(=O)N4CCN(C)CC4)/C=C/[C@@H]3C)c2)CC1=O [Compound 105] | 2.87 | – | – | – | – | – | – | −68.464 | −90.949 | GI50 [2, 12]: 6.95 nM; GI50 [3, 13]: 5.85 nM |
| C/C(=C\c1cc(F)cc(N2CCN(S(=O)(=O)c3cnn(C)c3)CC2)c1)[C@H]1OC(=O)C[C@H](O)CC[C@H](C)[C@@H](OC(=O)N2CCN(C)CC2)/C=C/[C@@H]1C [Compound 111] | 28 | – | – | – | – | – | – | −81.303 | −71.803 | GI50 [2, 12]: 12.8 nM; GI50 [3, 13]: 13.9 nM |
| C/C(=C\c1cc(F)cc(N2CCN(S(=O)(=O)c3cccnc3)CC2)c1)[C@H]1OC(=O)C[C@H](O)CC[C@H](C)[C@@H](OC(=O)N2CCN(C)CC2)/C=C/[C@@H]1C [Compound 112] | 12.8 | – | – | – | – | – | – | −86.973 | −80.066 | GI50 [2, 14]: 6.23 nM; GI50 [3, 15]: 8.29 nM |
| C/C(=C\c1cc(F)cc(N2CCN(S(=O)(=O)c3cn(C)cn3)CC2)c1)[C@H]1OC(=O)C[C@H](O)CC[C@H](C)[C@@H](OC(=O)N2CCN(C)CC2)/C=C/[C@@H]1C [Compound 113] | 8.2 | – | – | – | – | – | – | −73.107 | −80.966 | GI50 [2, 14]: 41.8 nM; GI50 [3, 15]: 49 nM |
| C/C(=C\c1cc(F)cc(Cl)c1)[C@H]1OC(=O)C[C@H](O)CC[C@H](C)[C@@H](OC(=O)N2CCN(C)CC2)/C=C/[C@@H]1C [Compound 167] | 3.19 | – | – | – | – | – | – | −70.414 | −85.316 | GI50 [2, 14]: 52.4 nM; GI50 [3, 15]: 34.1 nM |
| C/C(=C\c1cccc(S(=O)(=O)N2CCC(F)(F)C2)c1)[C@H]1OC(=O)C[C@H](O)CC[C@H](C)[C@@H](OC(=O)N2CCN(C)CC2)/C=C/[C@@H]1C [Compound 204, [(2S,3S,4E,6R,7S,10R)-2-[(E)-1-[3-(3,3-difluoropyrrolidin-1-yl)sulfonylphenyl]prop-1-en-2-yl]-10-hydroxy-3,7-dimethyl-12-oxo-1-oxacyclododec-4-en-6-yl] 4-methylpiperazine-1-carboxylate] | 23.5 | – | – | −24.924 | 81.9 | −94.081 | 82 | – | – | – |
| C/C(=C\C1=CCCN(C(=O)OC(C)(C)C)C1)[C@H]1OC(=O)C[C@H](O)CC[C@H](C)[C@@H](OC(=O)N2CCN(C)CC2)/C=C/[C@@H]1C [Compound 219, [(2S,3S,4E,6R,7S,10R)-10-hydroxy-3,7-dimethyl-2-[(E)-1-[1-[(2-methylpropan-2-yl)oxycarbonyl]-3,6-dihydro-2H-pyridin-5-yl]prop-1-en-2-yl]-12-oxo-1-oxacyclododec-4-en-6-yl] 4-methylpiperazine-1-carboxylate] | 7.96 | – | – | −42.617 | 42.4 | −91.460 | 24.6 | – | – | – |
| C/C(=C\c1cc(F)cc(N2CCN(C(=O)Cn3cccn3)CC2)c1)[C@H]1OC(=O)C[C@H](O)CC[C@H](C)[C@@H](OC(=O)N2CCN(Cc3cccnc3)CC2)/C=C/[C@@H]1C [Compound 252, [(2S,3S,4E,6R,7S,10R)-2-[(E)-1-[3-fluoro-5-[4-(2-pyrazol-1-ylacetyl)piperazin-1-yl]phenyl]prop-1-en-2-yl]-10-hydroxy-3,7-dimethyl-12-oxo-1-oxacyclododec-4-en-6-yl] 4-(pyridin-3-ylmethyl)piperazine-1-carboxylate] | 21.8 | 22.6 | 27.4 | −76.109 | – | – | – | – | – | Ratio Ad2.1/2.2 [1]: 0.825; GI50 [2, 16]: 10.3 nM |
| C/C(=C\c1cccc(COC(=O)N2CCC3(COC3)C2)c1)[C@H]1OC(=O)C[C@H](O)CC[C@H](C)[C@@H](OC(=O)N2CCN(C)CC2)/C=C/[C@@H]1C [Compound 255, [3-[(E)-2-[(2S,3S,4E,6R,7S,10R)-10-hydroxy-3,7-dimethyl-6-(4-methylpiperazine-1-carbonyl)oxy-12-oxo-1-oxacyclododec-4-en-2-yl]prop-1-enyl]phenyl]methyl 2-oxa-7-azaspiro[3.4]octane-7-carboxylate] | 7.32 | – | – | −24.942 | 67.6 | −61.401 | 65.8 | – | – | – |
| C/C(=C\c1cc(F)cc(N2CCN(CC(=O)O)CC2)c1)[C@H]1OC(=O)C[C@H](O)CC[C@H](C)[C@@H](OC(=O)N2CCNCC2)/C=C/[C@@H]1C [Compound 264] | 35.7 | 33.4 | 72.4 | −21.716 | – | – | – | – | – | Ratio Ad2.1/2.2 [1]: 0.461; GI50 [2, 16]: 143 nM |

From US11679107B2 (Eisai R&D Management Co., Ltd., priority 2018, dated 2023)
